According to patent US20240228488A1 (TAKEDA PHARMACEUTICAL COMPANY LIMITED, priority 2021, published 2024):

target: human activated kallikrein enzyme (Homo sapiens, UniProt P03952); assay: Plasma kallikrein inhibition, fluorogenic PFR-AMC substrate, 500 pM activated kallikrein format; type: biochemical; conditions: 500 pM activated kallikrein, 300 uM PFR-AMC, 30 min preincubation, 10 min reaction; read-out: Primary Dose Response Assay: Average EC50
How it was run: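 Fluorogenic readout (ex 380 / em 460 nm) after 10 min room-temperature reaction with 300 uM Pro-Phe-Arg-AMC substrate, following 30 min preincubation of inhibitors with 500 pM enzyme. Buffer: Tris pH 7.5, EDTA, NaCl, PEG-400, Triton X-100. Values given as EC50 ranges.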

human activated kallikrein enzyme, sequence (P03952 391-638 limits assumed): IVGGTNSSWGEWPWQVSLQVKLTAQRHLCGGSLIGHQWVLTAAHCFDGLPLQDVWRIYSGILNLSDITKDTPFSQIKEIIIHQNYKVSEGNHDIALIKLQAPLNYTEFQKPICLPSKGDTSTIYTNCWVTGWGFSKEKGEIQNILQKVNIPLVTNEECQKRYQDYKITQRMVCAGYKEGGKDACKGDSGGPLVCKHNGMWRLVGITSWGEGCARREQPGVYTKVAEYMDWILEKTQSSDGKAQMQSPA
human activated kallikrein enzyme, sequence (P03952 20-390 partner limits assumed): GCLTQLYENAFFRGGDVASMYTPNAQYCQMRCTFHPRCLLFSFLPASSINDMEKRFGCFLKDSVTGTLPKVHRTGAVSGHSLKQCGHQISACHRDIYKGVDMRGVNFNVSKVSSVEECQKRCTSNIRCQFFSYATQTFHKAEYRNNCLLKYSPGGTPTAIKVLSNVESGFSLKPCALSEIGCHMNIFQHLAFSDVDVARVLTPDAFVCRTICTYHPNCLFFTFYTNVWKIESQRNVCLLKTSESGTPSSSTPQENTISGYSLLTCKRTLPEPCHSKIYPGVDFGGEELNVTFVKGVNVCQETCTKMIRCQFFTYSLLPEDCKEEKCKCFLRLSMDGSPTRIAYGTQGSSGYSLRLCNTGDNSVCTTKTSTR

`Cc1ccnc([C@H]2C[C@@H]2C(=O)Nc2cc(N[C@H](C)c3cn4cc(C5CC5)cc(N5CC(=O)N(C)C5=O)c4n3)nc(CO)n2)n1` [Example 469, (1S,2S)-N-(6-(((R)-1-(6-cyclopropyl-8-(3-methyl-2,4-dioxoimidazolidin-1-yl)imidazo[1,2-a]pyridin-2-yl)ethyl)amino)-2-(hydroxymethyl)pyrimidin-4-yl)-2-(4-methylpyrimidin-2-yl)cyclopropane-1-carboxamide] and `Cc1ccnc([C@H]2C[C@@H]2C(=O)Nc2cc(N[C@H](C)c3cn4cc(C5CC5)cc(N5CC(=O)NC5=O)c4n3)nc(C)n2)n1` [Example 532, (1S,2S)-N-(6-(((R)-1-(6-cyclopropyl-8-(2,4-dioxoimidazolidin-1-yl)imidazo[1,2-a]pyridin-2-yl)ethyl)amino)-2-methylpyrimidin-4-yl)-2-(4-methylpyrimidin-2-yl)cyclopropane-1-carboxamide] cannot be ordered by EC50: under 0.001 µM for the first, under 0.001 µM for the second.

`Cc1ccnc([C@H]2C[C@@H]2C(=O)Nc2cc(N[C@H](C)c3cn4cc(Cl)cc(N5CC(=O)N(C)C5=O)c4n3)ncn2)n1` [Example 421, (1S,2S)-N-(6-(((R)-1-(6-chloro-8-(3-methyl-2,4-dioxoimidazolidin-1-yl)imidazo[1,2-a]pyridin-2-yl)ethyl)amino)pyrimidin-4-yl)-2-(4-methylpyrimidin-2-yl)cyclopropane-1-carboxamide] and `COCc1nc(NC(=O)[C@H]2C[C@@H]2c2nccc(C)n2)cc(N[C@H](C)c2cn3cc(C4(F)CC4)cc(N4CC(=O)N(C)C4=O)c3n2)n1` [Example 439, (1S,2S)-N-(6-(((R)-1-(6-(1-fluorocyclopropyl)-8-(3-methyl-2,4-dioxoimidazolidin-1-yl)imidazo[1,2-a]pyridin-2-yl)ethyl)amino)-2-(methoxymethyl)pyrimidin-4-yl)-2-(4-methylpyrimidin-2-yl)cyclopropane-1-carboxamide] cannot be ordered by EC50: under 0.001 µM for the first, under 0.001 µM for the second.

First: O=C(Nc1cc(NCc2cn3cc(C4CC4)ccc3n2)ncn1)[C@H]1C[C@@H]1c1cc(F)cc(Cl)c1 (racemic) [Example 46, rac-(1S*,2S*)-2-(3-chloro-5-fluorophenyl)-N-(6-(((6-cyclopropylimidazo[1,2-a]pyridin-2-yl)methyl)amino)pyrimidin-4-yl)cyclopropane-1-carboxamide]
Second: Nc1cc(Cl)cc([C@H]2C[C@@H]2C(=O)Nc2cc(NCc3cn4cc(C5CC5)ccc4n3)ncn2)c1 (single isomer, unassigned) [Example I-257, rac-(1S*,2S*)-2-(3-amino-5-chlorophenyl)-N-(6-(((6-cyclopropylimidazo[1,2-a]pyridin-2-yl)methyl)amino)pyrimidin-4-yl)cyclopropane-1-carboxamide]
The EC50 of the first is higher: 0.01 to 0.1 µM for the first, 0.001 to 0.01 µM for the second.

`Cc1ccnc([C@H]2C[C@@H]2C(=O)Nc2cc(NCc3cn4cc(C5CC5)cc(N5CC(=O)N(C)C5=O)c4n3)c(Cl)nn2)n1` [Example I-247, (1S,2S)-N-(6-chloro-5-(((6-cyclopropyl-8-(3-methyl-2,4-dioxoimidazolidin-1-yl)imidazo[1,2-a]pyridin-2-yl)methyl)amino)pyridazin-3-yl)-2-(4-methylpyrimidin-2-yl)cyclopropane-1-carboxamide] and `Cc1ccnc([C@H]2C[C@@H]2C(=O)Nc2cc(O)cc(OCc3cn4cc(C5CC5)cc(N5CC(=O)N(C)C5=O)c4n3)n2)n1` [Example 661, (1S,2S)—N-(6-((6-cyclopropyl-8-(3-methyl-2,4-dioxoimidazolidin-1-yl)imidazo[1,2-a]pyridin-2-yl)methoxy)-4-hydroxypyridin-2-yl)-2-(4-methylpyrimidin-2-yl)cyclopropane-1-carboxamide] fall in the same range of EC50: 0.001 to 0.01 µM for the first, 0.001 to 0.01 µM for the second.

First: O=C(O)c1nc(NCc2cn3cc(C4CC4)ccc3n2)cc(NC(=O)[C@H]2C[C@@H]2c2cccc(Cl)c2)n1 (racemic) [Example 112, rac-4-((1S*,2S*)-2-(3-chlorophenyl)cyclopropane-1-carboxamido)-6-(((6-cyclopropylimidazo[1,2-a]pyridin-2-yl)methyl)amino)pyrimidine-2-carboxylic acid]
Second: CSc1nc(NCc2cn3cc(C4CC4)ccc3n2)cc(NC(=O)[C@@H]2C[C@H]2c2cccc(Cl)c2)n1 (racemic) [Example 106, rac-(1S*,2S*)-2-(3-chlorophenyl)-N-(6-(((6-cyclopropylimidazo[1,2-a]pyridin-2-yl)methyl)amino)-2-(methylthio)pyrimidin-4-yl)cyclopropane-1-carboxamide]
The EC50 of the first is lower: 0.001 to 0.01 µM for the first, 0.1 to 1 µM for the second.

First: O=C(Nc1cc(NCc2cn3cc(C4CC4)cc(N4CC5(C4)CN(C4CC4)C5)c3n2)ncn1)[C@H]1C[C@@H]1c1cccc(Cl)c1 [Example I-12, (1S,2S)-2-(3-chlorophenyl)-N-(6-(((6-cyclopropyl-8-(6-cyclopropyl-2,6-diazaspiro[3.3]heptan-2-yl)imidazo[1,2-a]pyridin-2-yl)methyl)amino)pyrimidin-4-yl)cyclopropane-1-scarboxamide]
Second: O=C(Nc1cc(NCc2cn3cc(C4CC4)cc(OCc4ccccc4)c3n2)ncn1)[C@H]1C[C@@H]1c1cccc(Cl)c1 [Example I-148, (1S,2S)-N-(6-(((8-(benzyloxy)-6-cyclopropylimidazo[1,2-a]pyridin-2-yl)methyl)amino)pyrimidin-4-yl)-2-(3-chlorophenyl)cyclopropane-1-carboxamide]
The EC50 of the first is lower: 0.001 to 0.01 µM for the first, 0.01 to 0.1 µM for the second. The first is the more potent here.

`Cc1ccnc([C@H]2C[C@@H]2C(=O)Nc2ncc(CO)c(OCc3cn4cc(C5CC5)cc(N5CC(=O)N(C)C5=O)c4n3)n2)n1` [Example 664, (1S,2S)—N-(4-((6-cyclopropyl-8-(3-methyl-2,4-dioxoimidazolidin-1-yl)imidazo[1,2-a]pyridin-2-yl)methoxy)-5-(hydroxymethyl)pyrimidin-2-yl)-2-(4-methylpyrimidin-2-yl)cyclopropane-1-carboxamide] and `Cc1ccnc([C@H]2C[C@@H]2C(=O)Nc2nncc(N(C)Cc3cn4cc(C5CC5)cc(N5CC(=O)N(C)C5=O)c4n3)n2)n1` [Example 668, (1S,2S)—N-(5-(((6-cyclopropyl-8-(3-methyl-2,4-dioxoimidazolidin-1-yl)imidazo[1,2-a]pyridin-2-yl)methyl)(methyl)amino)-1,2,4-triazin-3-yl)-2-(4-methylpyrimidin-2-yl)cyclopropane-1-carboxamide] cannot be ordered by EC50: under 0.001 µM for the first, under 0.001 µM for the second.

`Cc1ccnc([C@H]2C[C@@H]2C(=O)Nc2cc(N[C@H](C)c3cn4cc(C5CC5)cc(N5CC6CC6C5=O)c4n3)nc(C)n2)n1` (stereo partly drawn) [Example 433, (1S,2S)-N-(6-(((1R)-1-(6-cyclopropyl-8-(2-oxo-3-azabicyclo[3.1.0]hexan-3-yl)imidazo[1,2-a]pyridin-2-yl)ethyl)amino)-2-methylpyrimidin-4-yl)-2-(4-methylpyrimidin-2-yl)cyclopropane-1-carboxamide] and `Cc1cc(N2CC(=O)N(C)C2=O)c2nc(C(C)Oc3cnnc(NC(=O)[C@H]4C[C@@H]4c4nccc(C)n4)c3)cn2c1` (stereo partly drawn) [Example 36, (1S,2S)-N-(5-(1-(6-methyl-8-(3-methyl-2,4-dioxoimidazolidin-1-yl)imidazo[1,2-α]pyridin-2-yl)ethoxy)pyridazin-3-yl)-2-(4-methylpyrimidin-2-yl)cyclopropane-1-carboxamide] cannot be ordered by EC50: under 0.001 µM for the first, under 0.001 µM for the second.

First: O=C(Nc1nccc2cn(Cc3cn4cc(C5CC5)ccc4n3)nc12)[C@H]1C[C@@H]1c1cccc(Cl)c1 (racemic) [Example 592, rac-(1S*,2S*)-2-(3-chlorophenyl)-N-(2-((6-cyclopropylimidazo[1,2-a]pyridin-2-yl)methyl)-2H-pyrazolo[3,4-c]pyridin-7-yl)cyclopropane-1-carboxamide]
Second: O=C(Nc1nccc2c1cnn2Cc1cn2cc(C3CC3)ccc2n1)[C@H]1C[C@@H]1c1cccc(Cl)c1 [Example 584, (1S,2S)-2-(3-chlorophenyl)-N-(1-((6-cyclopropylimidazo[1,2-a]pyridin-2-yl)methyl)-1H-pyrazolo[4,3-c]pyridin-4-yl)cyclopropane-1-carboxamide]
The EC50 of the first is lower: 0.001 to 0.01 µM for the first, 1 to 6 µM for the second.

Compared with `CN1C(=O)CN(c2cc(C3CC3)cn3cc(CNc4cc(NC(=O)[C@H]5C[C@@H]5c5nccc(C(F)(F)F)n5)ncn4)nc23)C1=O` (racemic) [Example I-165, rac-(1S*,2S*)-N-(6-(((6-cyclopropyl-8-(3-methyl-2,4-dioxoimidazolidin-1-yl)imidazo[1,2-a]pyridin-2-yl)methyl)amino)pyrimidin-4-yl)-2-(4-(trifluoromethyl)pyrimidin-2-yl)cyclopropane-1-carboxamide], `CN1C(=O)CN(c2cc(C3CC3)cn3cc(CNc4cc(NC(=O)[C@@H]5C[C@H]5c5cc(Cl)ccn5)ncn4)nc23)C1=O` (single isomer, unassigned) [Example I-263] is higher in EC50: 0.001 to 0.01 µM for the first, 0.01 to 0.1 µM for the second. The first is the more potent here.

First: O=C(Nc1cc(NCc2cn3cc(C4CC4)ccc3n2)ncn1)[C@H]1[C@H](CO)[C@@H]1c1cccc(Cl)c1 (racemic) [Example I-180, rac-(1R*,2S*,3R*)-2-(3-chlorophenyl)-N-(6-(((6-cyclopropylimidazo[1,2-a]pyridin-2-yl)methyl)amino)pyrimidin-4-yl)-3-(hydroxymethyl)cyclopropane-1-carboxamide]
Second: O=C(Nc1cnnc(NCc2cn3cc(C4CC4)ccc3n2)c1)[C@H]1C[C@@H]1c1cccc(Cl)c1 (racemic) [Example 348, (rac-(1S*,2S*))-2-(3-chlorophenyl)-N-(6-(((6-cyclopropylimidazo[1,2-a]pyridin-2-yl)methyl)amino)pyridazin-4-yl)cyclopropane-1-carboxamide]
The EC50 of the first is higher: 0.01 to 0.1 µM for the first, 0.001 to 0.01 µM for the second.

`O=C(Nc1cc(NCc2cn3cc(C4CC4)ccc3n2)ncn1)[C@H]1C[C@@H]1c1cc(Cl)ncn1` (racemic) [Example I-176, rac-(1S*,2S*)-2-(6-chloropyrimidin-4-yl)-N-(6-(((6-cyclopropylimidazo[1,2-a]pyridin-2-yl)methyl)amino)pyrimidin-4-yl)cyclopropane-1-carboxamide] showed an EC50 of 0.1 to 1 µM.

same assay, conditions: comparative compounds, 500 pM activated kallikrein format; read-out: Primary Dose Response Assay: Average EC50

In the case of `O=C(Nc1cc(NCc2cn3cc(C4CC4)ccc3n2)ncn1)NC1CC1c1cccc(Cl)c1` (stereo not drawn), the EC50 is reported as 1 to 6 µM.
